Type in all cases: cell-based
The target in assay [1] is T1, CXCR2 receptor (Homo sapiens, UniProt P25025).
T1 sequence (P25025 1-360): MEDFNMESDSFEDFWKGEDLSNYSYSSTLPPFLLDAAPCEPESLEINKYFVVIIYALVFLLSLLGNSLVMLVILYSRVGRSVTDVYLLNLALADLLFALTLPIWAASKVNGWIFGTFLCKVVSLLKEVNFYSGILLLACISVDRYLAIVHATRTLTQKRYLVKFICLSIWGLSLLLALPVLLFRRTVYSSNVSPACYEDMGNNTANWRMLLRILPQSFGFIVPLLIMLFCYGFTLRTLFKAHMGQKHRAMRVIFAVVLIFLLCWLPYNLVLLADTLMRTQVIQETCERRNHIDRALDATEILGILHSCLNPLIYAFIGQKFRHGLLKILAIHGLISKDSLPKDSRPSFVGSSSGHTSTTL
Put plainly: CXCR2 Tango assay. To be noted: Tango reporter gene, 80 nM hCXCL1; read-out: pIC50 against the CXCR2 receptor (converted). The arrangement: fused on or other part: TEV protease cleavage site and Gal4-VP16 transcription factor fused to the receptor (Invitrogen Tango construct); no part of the key. From the text:
The assay measures ligand-induced activation of the receptor CXCR2 in a stable cell line containing the recombinant human CXCR2 linked to a TEV protease site and a Gal4-VP16 transcription factor (Invitrogen). Ligand binding to the receptor results in the recruitment of arrestin proteins (tagged with protease) to the receptor and triggers the release of a tethered transcription factor. The transcription factor enters the nucleus and activates the transcription of the reporter gene. The ability of a compound to inhibit CXCR2 activation is indirectly assessed by measuring the reporter gene activity.
A vial of cryopreserved cells was removed from liquid nitrogen and rapidly thawed in a water bath at 37° C. with gentle agitation. The cell contents were collected and resuspended in Assay Medium at a density of ˜200,000 cells/ml. All test compounds were dissolved in DMSO at a concentration of 10 mM and then were serially diluted to generate a 10-point dose response curve into 384-well assay plate (Greiner 781090) using an Echo (Labcyte) concentration-response program (50 nl/well). The cell-free, un-stimulated and positive controls were loaded with 50 nl/well pure DMSO to ensure that the DMSO concentration was constant across the plate for all assays. Using Multi-drop Combi (Thermo) with standard cassette, 50 μl of Assay Medium was added to cell-free control wells in compound-containing assay plate; 50 μl of the cell suspension without hCXCL1 (a CXCR2 ligand) was added to un-stimulated control wells (10,000 cells per well); and 50 μl of the cell suspension with 80 nM hCXCL1 was added to the rest of wells of the assay plate (10,000 cells per well). The cells were incubated overnight at 37° C./5% CO2·10 μl of 6× substrate mixture (LiveBLAzer™-FRET B/G substrate (CCF4-AM) Cat #K1096 from Invitrogen, Inc.) was added to each well using Multi-drop Combi (Thermo) with small-tube cassette and the plate was incubated at room temperature for 2 h in the dark. The plate was then read on EnVision using one excitation channel (409 nm) and two emission channels (460 nm and 530 nm).
The blue/green emission ratio (460 nm/530 nm) was calculated for each well by dividing the background-subtracted Blue emission values by the background-subtracted Green emission values. The dose response curve was based on sigmoidal dose-response model. All ratio data was normalized based upon the maximum emission ratio of positive control (hCXCL1) and minimum emission ratio of negative control (DMSO) on each plate.
In general terms: In a reporter assay the amount or activity of a reporter protein is the signal.

Assay [2] deals with T1, CXCR2 receptor. Description: Human whole blood assay version ii) (CD11b, GROα stimulated). To be noted: 33 nM GROα, neutrophil CD11b, read-out: pIC50 against the CXCR2 receptor (converted). Details: Assay d) measures the cellular functional activity to the native expressed human CXCR2 in whole blood; endogenous in cells; host or cells: human whole blood (neutrophils). On the procedure: Blood was withdrawn by venipuncture from consented adults and poured into a Sterilin tube containing an anti-coagulant Heparin (10 μL/mL of blood). All the test compounds were dissolved in DMSO to 4 mM and serial diluted across the plate, 1 in 3 to provide 10 point dose response curves. The compounds were then diluted 100 fold in -PBS [Phosphate buffered saline (without Calcium Chloride and Magnesium Chloride)] after which, 1 μL was dispensed in 96 U bottom Costar plates using an FX. This was done to reduce the final DMSO concentration to 0.25% and for compounds to be screened at 10 uM final assay concentration, after addition of blood.
10 μL of blood was transferred to the compound plate using a multi-channel pipette, gently tapped and incubated for 15 minutes, at 37° C. After 15 minutes, the stimulant GROα was diluted to 100 nM in 0.1% BSA (Albumin Bovine Serum)-PBS and 5 μL is dispensed across the whole plate for a final concentration of 33 nM. The plate was gently tapped and incubated further for 15 minutes at 37° C. […]
Samples were run on a Becton and Dickinson (BD)-Acurri C6 Flow Cytometer using a HyperCyt sampling apparatus (IntelliCyt) with a flow rate 2 μL/sec. CD11 b upregulation is monitored in neutrophils and identified using a combination of both side scatter and CD16 expression.

The target of assay [3] is T1, CXCR2 receptor. Put plainly: GPCR Arrestin Assay (DiscoveRX PathHunter), CXCR2. Details: host or cells: PathHunter CHO cell lines. On the procedure: (§1) Certain compounds of the invention were also tested by DiscoveRX Corporation (42501 Albrae Street, Fremont, Calif. 94538, United States) in their GPCR Arrestin Assay to determine their activity against a panel of receptors including CXCR2 and CXCR1. PathHunter CHO cell lines were expanded from freezer stocks according to standard procedures. Cells were seeded in a total volume of 20 μL into white walled, 384-well microplates and incubated at 37° C. for the appropriate time prior to testing. The cells were pre-incubated with antagonist followed by agonist challenge at the EC80 concentration. Intermediate dilution of sample stocks was performed to generate 5× sample in assay buffer. 5 μL of 5× sample was added to cells and incubated at 37° C. or room temperature for 30 minutes. […] Assay signal was generated through a single addition of 12.5 or 15 μL (50% v/v) of PathHunter Detection reagent cocktail, followed by one hour incubation at room temperature. Microplates were read following signal generation with a PerkinElmer Envision™ instrument for chemiluminescent signal detection. Compound activity was analyzed using CBIS data analysis suite (ChemInnovation, Calif.).

The next assay addresses T2, CXCR1 receptor (Homo sapiens, UniProt P25024).
T2 sequence (P25024 1-350): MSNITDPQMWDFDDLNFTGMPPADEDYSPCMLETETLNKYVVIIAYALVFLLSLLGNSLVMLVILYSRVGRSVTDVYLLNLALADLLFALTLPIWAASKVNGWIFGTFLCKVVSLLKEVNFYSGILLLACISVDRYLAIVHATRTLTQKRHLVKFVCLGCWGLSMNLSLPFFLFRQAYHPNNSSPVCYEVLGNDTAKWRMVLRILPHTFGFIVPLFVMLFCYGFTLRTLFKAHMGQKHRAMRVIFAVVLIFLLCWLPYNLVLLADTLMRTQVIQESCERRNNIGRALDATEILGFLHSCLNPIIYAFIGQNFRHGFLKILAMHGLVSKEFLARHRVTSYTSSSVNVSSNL
Description: GPCR Arrestin Assay (DiscoveRX PathHunter), CXCR1. Details: host or cells: PathHunter CHO cell lines. The note with it: PathHunter CHO cells, agonist at EC80; read-out: pIC50 against the CXCR1 receptor (converted). On the procedure:
as §1

As for `CC1=CCC[C@H]1NC(=O)Nc1ccc(Cl)c(S(=O)(=O)[C@@]2(C)CCOC2)c1O` [Compound of Formula (J), 1-(4-chloro-2-hydroxy-3-(((S)-3-methyltetrahydrofuran-3-yl)sulfonyl)phenyl)-3-((R)-2-methylcyclopent-2-en-1-yl)urea], the IC50 at CXCR2 receptor [1] was 0.001 µM; at CXCR2 receptor [2], 0.0398 µM; at CXCR2 receptor [3] (PathHunter CHO cells, agonist at EC80, read-out: pIC50 against the CXCR2 receptor (converted)), 0.00501 µM; at CXCR1 receptor it was 3.98 µM. For the same compound, on CXCR2 receptor [3] (GPCR Arrestin Assay e)), the “selectivity for CXCR2 over CXCR1” value turned out to be 730 fold.

The record behind these values is patent US20170224679A1, “Use of CXCR2 Antagonists For The Prevention and/or Treatment of Chemotherapy Induced Peripheral Neuropathy (CIPN)” (GlaxoSmithKline Intellectual Property Development Limited, priority 2014, published 2017).
